Where a name gives a salt, the structure may show the parent alone. Read-outs that look alike come from different tables or passages of the source.
How the values were obtained:
[1] = system: ciliated cells from human airway and frog palate; assay: Rotation of ciliated cell groups (Example 4); format: cell-based
Source text: Using ciliated cells from human airway and frog palate, rotation of cell groups due to ciliary beat was observed before and after application of N-acetylneuraminic acid and calcium salt of N-acetylneuraminic acid, in order to confirm the effect of these agents on the cilitated cells.
(§1) Human ciliated cells were collected from a normal trachea by means of a branchoscope, the ciliated cells being separated by rubbing the bronchus while observing through the branchoscope, while the collection of frog cilitated cells was conducted by rubbing the palatine mucosta, without being specially careful. […] The groups of cells were transferred to a cover slip and one drop of chicken plasma (prepared by Difco Company) and one drop of 50% chicken embryo extract were added to the cells, thus forming clots. The rotary motion in the clots was recorded by means of a video recorder and the number of rotations per minute was measured.

[2] = system: ciliated cell; assay: Rotating ciliated explant (Example 9, Table 7); format: cell-based; conditions: for activation at 10 µg/mL: 10^-2 mg/ml (terbutaline 1-^-2 [sic]); for activation at 10 µg/mL / activation at 1 µg/mL / activation at 0.1 µg/mL: mean ± SD, > 20.0 significant, read-out: Acceleration (rotating ciliated explant); for activation at 1 µg/mL: 10^-3 mg/ml; for activation at 0.1 µg/mL: 10^-4 mg/ml
Experimental: as §1, with “measured. The agents were dissolved in the Medium 199 and were injected through a tube attached to a rose chamber. The state of rotary motion 5 minutes, 10 minutes and 15 minutes after the injection were recorded by means of a video recorder, and the number of revolutions was measured.” for “measured.”
A test was conducted to examine the above-mentioned effect by using sodium salt of N-Acetylneuraminic Acid, in accordance with the same testing method as that of Example 2.

[3] = system: palatine mucosa of frog; assay: Ciliary movement of frog palatine mucosa, particle transport method (Example 3, Tables 1-3); format: cell-based, bull frog; conditions: for activation at 100 µg/mL / activation at 10 µg/mL: control = 0
Experimental: Bull frogs (furnished by Saitama Test Animal) weighing 300 to 450 g were used regardless of sex.
N-acetylneuraminic acid and calcium salt of N-acetylneuraminic acid (provided by Kanto Ishiseiyaku Kabushiki Kaisha), as well as acetylcholine chloride (furnished by Sigma Kabushiki Kaisha) were used as the test substances.
(§2) Mucociliary transport was measured by the particle transport method. After decapitation of a frog, the surface of the palatine mucosa was separated with minimized damage and of fixed to a cork plate in a Petri dish which was then filled with 20 ml of Ringer's solution (trishydrochloric acid). The palatine mucosa was left in this state for 30 minutes before the commencement of measurement. For measurement, the Ringer's solution was removed and fine pieces of cork (capable of passing pharmaceutical sieve No. 5 but not capable of passing No. 6) were placed on the surface of the palatine mucosa, and the time (in seconds) required for the cork piece to move 1 cm was measured. The duration of movement, i.e., moving speed, was measured also in the state immediately after the removal of the Ringer's solution or pharmaceutical solution.

[4] = system: palatine mucosa of frog; assay: Mucociliary transport of frog palatine mucosa (Example 8, Table 6); format: cell-based; conditions: mean ± SD, over 20.0% significant, read-out: Acceleration (mucociliary transport); for activation at 100 µg/mL: 10^-1 mg/ml; for activation at 10 µg/mL: 10^-2 mg/ml; for activation at 1 µg/mL: 10^-3 mg/ml; for activation at 0.1 µg/mL: 10^-4 mg/ml
Experimental: as §2

CC(=O)OCC[N+](C)(C)C.[Cl-] [acetylcholine, acetylcholine chloride, reference compound]
Time of speed peak of rotary motion after application ([1]; 3×10^-3 mg/ml): ~5 min | Time of speed peak of rotary motion after application ([1]; 10^-3 mg/ml): about 10 minutes | Effect on speed of rotary motion of the cilium cells ([1]; 10^-3 mg/ml and 3×10^-3 mg/ml): the speed of rotary motion of the cilium cells is increased | Time after application at which rotary motion stopped ([1]; 10^-3 and 3×10^-3 mg/ml, both cases): 13 min | activation at 10 µg/mL ([2]; 5 min, 5 min after perfusion): 58.1 ± 38.1% | activation at 1 µg/mL ([2]; 5 min, 5 min after perfusion): 27.8 ± 12.2% | activation at 0.1 µg/mL ([2]; 5 min, 5 min after perfusion): -1.7% | activation at 10 µg/mL ([2]; 10 min, 10 min after perfusion): 52 ± 32.6% | activation at 1 µg/mL ([2]; 10 min, 10 min after perfusion): 10.6 ± 15% | activation at 0.1 µg/mL ([2]; 10 min, 10 min after perfusion): 0.8% | activation at 10 µg/mL ([2]; 0.25 h, 15 min after perfusion): 44.5 ± 22% | activation at 1 µg/mL ([2]; 0.25 h, 15 min after perfusion): 20.8 ± 26.4% | activation at 0.1 µg/mL ([2]; 0.25 h, 15 min after perfusion): 14.6% | Effect on rotation ([2]; between 10^-3 and 10^-2 mg/ml): increase in the rotation in a certan dependency on the dose | Movement ([3]; 10^-4 g/ml, frog number 1): 21.0 s/cm | Movement ([3]; 10^-4 g/ml, frog number 2): 21.7 s/cm | Movement ([3]; 10^-4 g/ml, frog number 3): 20.7 s/cm | Movement ([3]; 10^-5 g/ml, frog number 1): 27.0 s/cm | Movement ([3]; 10^-5 g/ml, frog number 2): 29.7 s/cm | Movement ([3]; 10^-5 g/ml, frog number 3): 26.3 s/cm | activation at 100 µg/mL ([3]; read-out: Acceleration, 10^-4 g/ml, frog number 1): 53.3% | activation at 100 µg/mL ([3]; read-out: Acceleration, 10^-4 g/ml, frog number 2): 41.4% | activation at 100 µg/mL ([3]; read-out: Acceleration, 10^-4 g/ml, frog number 3): 47.3% | activation at 10 µg/mL ([3]; read-out: Acceleration, 10^-5 g/ml, frog number 1): 40% | activation at 10 µg/mL ([3]; read-out: Acceleration, 10^-5 g/ml, frog number 2): 19.7% | activation at 10 µg/mL ([3]; read-out: Acceleration, 10^-5 g/ml, frog number 3): 33.1% | activation at 100 µg/mL ([4]; 5 min, 5 min after applied): 22.8 ± 26.1% | activation at 10 µg/mL ([4]; 5 min, 5 min after applied): 17.5 ± 14.3% | activation at 1 µg/mL ([4]; 5 min, 5 min after applied): 12.3 ± 8.5% | activation at 0.1 µg/mL ([4]; 5 min, 5 min after applied): 3 ± 7.6% | activation at 100 µg/mL ([4]; 10 min, 10 min after applied): 31 ± 24.9% | activation at 10 µg/mL ([4]; 10 min, 10 min after applied): 18.8 ± 21.1% | activation at 1 µg/mL ([4]; 10 min, 10 min after applied): 19.9 ± 16.8% | activation at 0.1 µg/mL ([4]; 10 min, 10 min after applied): 3.8 ± 15.5% | activation at 100 µg/mL ([4]; 0.25 h, 15 min after applied): 30.5 ± 19.5% | activation at 10 µg/mL ([4]; 0.25 h, 15 min after applied): 24.9 ± 25.6% | activation at 1 µg/mL ([4]; 0.25 h, 15 min after applied): 13.9 ± 20.5% | activation at 0.1 µg/mL ([4]; 0.25 h, 15 min after applied): -5.5 ± 10%

CC(=O)N[C@H]1[C@H]([C@H](O)[C@H](O)CO)OC(O)(C(=O)O)C[C@@H]1O (stereo partly shown) [calcium salt of N-acetylneuraminic acid]
Movement ([3]; 10^-4 g/ml, frog number 1): 23.0 s/cm | activation at 100 µg/mL ([3]; 10^-4 g/ml, frog number 1, read-out: Acceleration): 39% | Movement ([3]; 10^-4 g/ml, frog number 2): 29.0 s/cm | activation at 100 µg/mL ([3]; 10^-4 g/ml, frog number 2, read-out: Acceleration): 28.7% | Movement ([3]; 10^-4 g/ml, frog number 3): 19.7 s/cm | activation at 100 µg/mL ([3]; 10^-4 g/ml, frog number 3, read-out: Acceleration): 46.8% | Movement ([3]; 10^-5 g/ml, frog number 1): 25.0 s/cm | activation at 10 µg/mL ([3]; 10^-5 g/ml, frog number 1, read-out: Acceleration): 33.7% | Movement ([3]; 10^-5 g/ml, frog number 2): 29.3 s/cm | activation at 10 µg/mL ([3]; 10^-5 g/ml, frog number 2, read-out: Acceleration): 28% | Movement ([3]; 10^-5 g/ml, frog number 3): 24.3 s/cm | activation at 10 µg/mL ([3]; 10^-5 g/ml, frog number 3, read-out: Acceleration): 34.2% | Effect on ciliary movement of palatine mucosa ([3]; Tables 1 and 3): acceleration of the ciliary movement of palatine mucosa in a certain dose-dependency | Ciliary movement promoting effect compared with acetylcholine ([3]; acetylcholine control at 10^-5 and 10^-4): substantially the same ciliary movement promoting effect as the acetylcholine

CC(C)(C)NCC(O)c1cc(O)cc(O)c1 (stereo not shown) [terbutaline, 5-[2-[(1.1-dimetylethyl)amino]-1-hydoxyethyl]-1,3-benzenediole]
Effect on rotary motion of the cilium cells ([1]; 10^-3 to 3×10^-2 mg/ml): the rotary motion of the cilium cells is increased | Effect on rotary motion, time dependence ([1]; 5 minutes after application, 10^-3 to 3×10^-2 mg/ml): particularly remarkable 5 minutes after the application | Effect on rotation ([2]; 10^-4 to 10^- mg/ml (so in the source)): general tendency of increase of the rotation | activation at 10 µg/mL ([2]; 5 min, 5 min after perfusion): 18.6 ± 0.3% | activation at 1 µg/mL ([2]; 5 min, 5 min after perfusion): 51.2 ± 36% | activation at 0.1 µg/mL ([2]; 5 min, 5 min after perfusion): -5.2 ± 12.2% | activation at 10 µg/mL ([2]; 10 min, 10 min after perfusion): 24.8 ± 3.5% | activation at 1 µg/mL ([2]; 10 min, 10 min after perfusion): 37.2 ± 35.5% | activation at 0.1 µg/mL ([2]; 10 min, 10 min after perfusion): 1.6 ± 4.6% | activation at 10 µg/mL ([2]; 0.25 h, 15 min after perfusion): 2.7 ± 7.4% | activation at 1 µg/mL ([2]; 0.25 h, 15 min after perfusion): 42.1 ± 32.8% | activation at 0.1 µg/mL ([2]; 0.25 h, 15 min after perfusion): 6.7 ± 3%
